For 22 molecules, EC50 and Emax results are on record in US10239887B2, “Positive allosteric modulators of the muscarinic acetylcholine receptor M4” (Vanderbilt University, priority 2016, dated 2019).

The assay addresses T1, human mAChR M4 (Homo sapiens, UniProt P08173).
T1 sequence (P08173 1-479): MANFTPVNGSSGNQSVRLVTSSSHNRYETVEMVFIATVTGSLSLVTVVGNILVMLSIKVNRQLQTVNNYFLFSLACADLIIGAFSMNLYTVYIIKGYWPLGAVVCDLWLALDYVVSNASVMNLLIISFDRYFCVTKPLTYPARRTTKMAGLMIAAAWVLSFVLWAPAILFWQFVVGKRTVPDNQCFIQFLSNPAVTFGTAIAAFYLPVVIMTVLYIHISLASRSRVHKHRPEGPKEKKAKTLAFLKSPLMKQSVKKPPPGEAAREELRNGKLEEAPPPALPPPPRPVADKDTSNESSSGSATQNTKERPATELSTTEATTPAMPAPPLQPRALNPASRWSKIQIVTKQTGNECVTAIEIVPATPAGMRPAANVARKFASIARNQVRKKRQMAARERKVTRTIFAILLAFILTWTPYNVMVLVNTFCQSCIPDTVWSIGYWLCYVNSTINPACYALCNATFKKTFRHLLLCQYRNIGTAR
Put plainly: mAChR M4 cell-based functional assay (calcium flux), human M4. The note with it: for EC50: Human M4 EC50 (nM); for Emax: % ACh maximum at 30 μM; for pEC50: Human M4 EC50, CHO-K1 hM4-Gqi5 cells, increase in EC20 acetylcholine response. In general terms: A change in cytosolic calcium serves as a functional read-out for many receptors and channels.

Setting [1] is: Table 11, calcium flux, PAM activity with EC20 acetylcholine.
[2] abbreviates: Table 10, calcium flux, PAM activity with EC20 acetylcholine.

pEC50: −log10 of the molar value. Counter-ions that a name gives are not always drawn. A value given as a limit tells only on which side of the number the result lay.

As usually defined, the EC50 is the concentration that produces a half-maximal response. By Emax is commonly meant the greatest response seen or fitted, relative to the assay's reference. As to `Cc1nnc2sc3c(NCc4ccc(C5COC5)cc4)ncnc3c2c1C` [Compound 374, 3,4-dimethyl-N-[[4-(oxetan-3-yl)phenyl]methyl] pyrimido[4′,5′:4,5]thieno [2,3-c]pyridazin-8-amine], the EC50 under setting [1] amounted to 45.2 nM. Also, the Emax (Table 11) is 101%.

On to `COc1ccc(CNc2ncnc3c2oc2nnc(C)c(C)c23)cc1` [Compound 309, N-[(4-methoxyphenyl)methyl]-3,4-dimethyl-pyrimido [4′,5′:4,5]furo[2,3-c]pyridazin-8-amine], for which the EC50 under setting [2] was determined as 403 nM. For the same molecule, the Emax (Table 10) is 73.6%.

In general, pEC50 refers to the EC50 on a negative log10 scale, so that one unit is a factor of ten. Consider `Cc1nnc2oc3c(N4CC5(COC5)C4)ncnc3c2c1C` [Compound 73, 3,4-dimethyl-8-(2-oxa-6-azaspiro[3.3]heptan-6-yl)pyrimido[4′,5′:4,5]furo [2,3-c]pyridazine], for which, under “Human M4”, the Emax turned out to be 46.1%. Further, the pEC50 (calcium flux) is 5.32.

On to `Cc1nc2sc3c(NCc4ccc(C(C)(C)O)cc4F)ncnc3c2c(C)c1Cl` [Compound 279, 2-[4-[[(8-chloro-7,9-dimethyl-pyrido [3′,2′:4,5]thieno[3,2-d]pyrimidin-4-yl)amino]methyl]-3-fluoro-phenyl] propan-2-ol], for which, under setting [2], the EC50 turned out to be 6020 nM. The Emax (Table 10) turned out to be 49.4%.

Take `Cc1nnc2sc3c(NCc4ccc(C(=O)NC5CCC(C)(C)CC5)cc4)ncnc3c2c1C` [Compound 160, N-(4,4-dimethylcyclohexyl)-4-[[(3,4-dimethylpyrimido [4′,5′:4,5]thieno[2,3-c]pyridazin-8-yl)amino]methyl]benzamide]: the EC50 under setting [2] came to 980 nM. Moreover, for the setting “Table 10”, the Emax turned out to be 86%.

On to `Cc1nnc2sc3c(NCc4ccc(OCC5CC5)c(F)c4)ncnc3c2c1C` [Compound 91, N-[[4-(cyclopropylmethoxy)-3-fluoro-phenyl]methyl]-3,4-dimethyl-pyrimido [4′,5′:4,5]thieno[2,3-c] pyridazin-8-amine], for which the EC50 under setting [2] amounted to 3130 nM. In addition, under “Table 10”, the Emax came out at 61.8%.

Regarding `Cc1ncc(CNc2ncnc3c2sc2nc(C)c(Cl)c(C)c23)cn1` [Compound 271, 8-chloro-7,9-dimethyl-N-[(2-methylpyrimidin-5-yl)methyl]pyrido [3′,2′:4,5]thieno[3,2-d] pyrimidin-4-amine dihydrochloride], under “Table 10, unit μM (bounds)”, the half-maximal effective concentration (EC50) is greater than 10000 nM. For the same molecule, the Emax (Table 10) was 74.7%.

With `Cc1nnc2sc3c(N4CC(=O)C4)ncnc3c2c1C` [Compound 36, 1-(3,4-dimethylpyrimido [4′,5′:4,5]thieno[2,3-c]pyridazin-8-yl) azetidin-3-one], where the note is “Human M4”, the Emax amounted to 64%. In addition, under “calcium flux”, the pEC50 was 6.00.

As to `Cc1cc(C)c2c(n1)sc1c(NCc3ccc(OC(F)F)nc3)ncnc12` [Compound 203, N-[[6-(difluoromethoxy)-3-pyridyl]methyl]-7.9-dimethyl-pyrido[3′,2′:4,5] thieno[3,2-d]pyrimidin-4-amine], under setting [2], the EC50 came out at 4010 nM. Besides, the Emax (Table 10) was 44.5%.

Take `Cc1nnc2sc3c(N4CC[C@H](Oc5cccnc5)C4)ncnc3c2c1C` [Compound 332, 3,4-dimethyl-8-[(3S)-3-(3-pyridyloxy)pyrrolidin-1-yl] pyrimido[4′,5′:4,5]thieno [2,3-c]pyridazine]: the EC50 under setting [1] was 129 nM. Besides, under “Table 11”, the Emax is 80.5%.

For `Cc1nc2sc3c(NCC4CCOC4)ncnc3c2c(C)c1Cl` (centres unmarked) [Compound 273, 8-chloro-7,9-dimethyl-N-(tetrahydrofuran-3-ylmethyl) pyrido[3′,2′:4,5]thieno [3,2-d]pyrimidin-4-amine dihydrochloride], under setting [2], the EC50 was determined as 1840 nM. For the same molecule, the Emax (Table 10) came out at 59.5%.

With `Cc1nnc2oc3c(NC4CCC4)ncnc3c2c1C` [Compound 303, N-cyclobutyl-3,4-dimethyl-pyrimido [4′,5′:4,5]furo[2,3-c]pyridazin-8-amine], the EC50 under setting [2] was determined as 1530 nM. In addition, the Emax (Table 10) was determined as 54.8%.

For `Cc1nc2sc3c(NCc4ccc(-n5ccnc5)cc4)ncnc3c2c(C)c1Cl` [Compound 268, 8-chloro-N-[(4-imidazol-1-ylphenyl)methyl]-7,9-dimethyl-pyrido[3′,2′:4,5] thieno[3,2-d]pyrimidin-4-amine dihydrochloride], the EC50 under setting [2] was 3170 nM. Besides, the Emax (Table 10) was determined as 31.3%.

As for `Cc1cc(C)c2c(n1)sc1c(NC3CN(c4ncc(C(F)(F)F)cn4)C3)ncnc12` [Compound 207, 7,9-dimethyl-N-[1-[5-(trifluoromethyl)pyrimidin-2-yl]azetidin-3-yl]pyrido[3′,2′:4,5] thieno[3,2-d]pyrimidin-4-amine], under setting [2], the EC50 was 6550 nM. The maximum response (Emax) (Table 10) is 51.5%.

With `Cc1nnc2sc3c(N4CC[C@H](Oc5ccc(C#N)cc5)C4)ncnc3c2c1C` [Compound 363, 4-[(3S)-1-(3,4-dimethylpyrimido[4′,5′:4,5]thieno[2,3-c]pyridazin-8-yl)pyrrolidin-3-yl] oxybenzonitrile dihydrochloride], the EC50 under setting [1] was 298 nM. Also, under “Table 11”, the Emax worked out at 64.8%.

As to `Cc1nc2sc3c(N4CC(F)(F)C4)ncnc3c2c(C)c1Cl` [Compound 261, 8-chloro-4-(3,3-difluoroazetidin-1-yl)-7,9-dimethyl-pyrido [3′,2′:4,5]thieno[3,2-d] pyrimidine hydrochloride], the EC50 under setting [2] is 3920 nM. Further, the Emax (Table 10) was determined as 76.2%.

Turning to `Cc1c(Cl)nnc2sc3c(NCc4ccc(OC(F)F)nc4)ncnc3c12` [Compound 211, 3-chloro-N-[[6-(difluoromethoxy)-3-pyridyl]methyl]-4-methyl-pyrimido [4′,5′:4,5]thieno[2,3-c] pyridazin-8-amine], the EC50 under setting [2] was found to be 787 nM. The Emax (Table 10) came to 68.5%.

With `Cc1nnc2sc3c(N4CC(Oc5cnccn5)C4)ncnc3c2c1C` [Compound 350, 3,4-dimethyl-8-(3-pyrazin-2-yloxyazetidin-1-yl) pyrimido[4′,5′:4,5]thieno [2,3-c]pyridazine dihydrochloride], under setting [1], the EC50 is 404 nM. The Emax (Table 11) stood at 78.1%.

On to `Cc1nnc2sc3c(NC4CC5(C4)CN(C(=O)C4CCOCC4)C5)ncnc3c2c1C` [Compound 169, [6-[(3,4-dimethylpyrimido[4′,5′:4,5]thieno[2,3-c]pyridazin-8-yl)amino]-2-azaspiro[3.3]heptan-2-yl]-tetrahydropyran-4-yl-methanone], for which, under “Table 10, unit μM (bounds)”, the EC50 was greater than 10000 nM. For the same molecule, the Emax (Table 10) worked out at 34.9%.

For the molecule `Cc1c(Cl)cnc2sc3c(NCc4ccc(S(C)(=O)=O)cc4)ncnc3c12` [Compound 237, 8-chloro-9-methyl-N-[(4-methylsulfonylphenyl)methyl]pyrido [3′,2′:4,5]thieno[3,2-d] pyrimidin-4-amine dihydrochloride], under setting [2], the EC50 turned out to be 1320 nM. For the same molecule, where the note is “Table 10”, the Emax was determined as 54.5%.

Take `Cc1nnc2sc3c(NCc4ccc(Oc5ccccn5)cc4)ncnc3c2c1C` [Compound 110, 3,4-dimethyl-N-[[4-(2-pyridyloxy)phenyl]methyl] pyrimido[4′,5′:4,5]thieno [2,3-c]pyridazin-8-amine hydrochloride]: under setting [2], the EC50 turned out to be 971 nM. Under “Table 10”, the Emax turned out to be 59.3%.

`Cc1nnc2sc3c(NCc4ccc(F)c(C(=O)NC(C)C(C)(C)CO)c4)ncnc3c2c1C` (centres unmarked) [Compound 185, 5-[[(3,4-dimethylpyrimido [4′,5′:4,5]thieno[2,3-c]pyridazin-8-yl)amino]methyl]-2-fluoro-N-(3-hydroxy-1,2,2-trimethyl-propyl)benzamide]: the EC50 under setting [2] was 794 nM. For the same molecule, the Emax (Table 10) turned out to be 94.2%.
